According to US10350220B2, “Methods and materials for reducing suppression of immune function” (Mayo Foundation for Medical Education and Research, priority 2011, dated 2019):

System: CD14+ cells co-cultured with a renal cell tumor line (ACHN)
Experiment: HLA-DR expression of isolated CD14+ cells co-cultured with ACHN renal cell tumor line, flow cytometry
Settings: CD14+ cells exposed to ACHN cancer cells, RU486 5 or 20 μM added day 0; compared with cells exposed to cancer cells and not treated

CC#C[C@]1(O)CC[C@H]2[C@@H]3CCC4=CC(=O)CCC4=C3[C@@H](c3ccc(N(C)C)cc3)C[C@@]21C [RU486, mifepristone]
HLA-DR expression (MFI of HLA-DR staining, FIG. 1): more HLA-DR expression than cells exposed to cancer cells and not treated with RU486
